Test results from US9809573B2, “Substituted pyridine derivatives useful as GSK-3 inhibitors” (priority 2013, dated 2017).
Read-outs that look alike come from different tables or passages of the source.

Legend:
GSK3β = GSK3β (Homo sapiens, UniProt P49841); experiment: GSK3β kinase assay (Caliper LabChip3000, fluoresceinated peptide substrate); type: biochemical
How it was run: (§1)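 Reactions run 20 hours at room temperature, stopped with EDTA. Phosphorylated and unphosphorylated fluoresceinated peptide separated electrophoretically on Caliper LabChip3000. Eleven compound concentrations tested; IC50 by non-linear regression.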

GSK3α = GSK3α (Homo sapiens, UniProt P49840); experiment: biochemical
GSK3α, sequence (P49840 whole entry, species assumed): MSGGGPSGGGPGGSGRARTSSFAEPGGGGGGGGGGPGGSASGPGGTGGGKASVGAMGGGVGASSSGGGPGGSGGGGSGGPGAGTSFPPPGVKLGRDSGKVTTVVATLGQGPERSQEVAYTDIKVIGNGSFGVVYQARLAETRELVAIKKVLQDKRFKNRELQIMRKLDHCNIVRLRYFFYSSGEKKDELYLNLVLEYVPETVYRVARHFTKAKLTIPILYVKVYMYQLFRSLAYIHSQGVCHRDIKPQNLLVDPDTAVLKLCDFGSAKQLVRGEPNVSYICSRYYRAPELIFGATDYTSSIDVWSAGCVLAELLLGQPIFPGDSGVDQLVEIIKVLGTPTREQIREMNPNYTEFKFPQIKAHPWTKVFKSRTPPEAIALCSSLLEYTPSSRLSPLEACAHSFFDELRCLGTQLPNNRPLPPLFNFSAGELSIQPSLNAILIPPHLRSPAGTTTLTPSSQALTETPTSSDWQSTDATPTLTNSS
How it was run: as §1

pTau = pTau assay (method not described); type: cell-based
[1] = first value of the cell, 250 pM enzyme, 20 uM ATP, 20 hours at room temperature, read-out: GSK3β/α (nM): GSK3β IC50
[2] = second value of the cell, 250 pM enzyme, 20 uM ATP, 20 hours at room temperature, read-out: GSK3β/α (nM): GSK3α IC50

GSK3β, sequence (P49841 whole entry, species assumed): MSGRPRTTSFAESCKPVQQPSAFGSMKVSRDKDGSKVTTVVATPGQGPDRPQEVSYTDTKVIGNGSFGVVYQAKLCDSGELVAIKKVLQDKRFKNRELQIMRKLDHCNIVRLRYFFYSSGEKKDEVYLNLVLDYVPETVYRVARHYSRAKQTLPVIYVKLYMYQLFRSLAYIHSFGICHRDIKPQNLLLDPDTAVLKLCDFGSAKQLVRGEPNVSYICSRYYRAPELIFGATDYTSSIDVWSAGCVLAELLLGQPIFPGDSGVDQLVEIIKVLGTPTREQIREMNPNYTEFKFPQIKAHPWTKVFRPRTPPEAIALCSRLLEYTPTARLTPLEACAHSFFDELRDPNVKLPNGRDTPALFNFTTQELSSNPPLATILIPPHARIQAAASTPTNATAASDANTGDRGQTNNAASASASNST

SMILES | IC50 (GSK3β) | IC50 (GSK3α) | IC50 (pTau; read-out: pTau (nM)) | IC50 (GSK3β; [1]) | IC50 (GSK3α; [2]) | IC50 (pTau; read-out: pTau)
O=C(Nc1cnccc1-c1ccccc1)c1ccnc(NC(=O)C2CCC2)c1 [Example 212, 2-(Cyclobutanecarboxamido)-N-(4-phenylpyridin-3-yl)isonicotinamide] | 4.3 nM | 4.4 nM | 96 nM |  |  | 
O=C(Nc1cnccc1-c1cncnc1)c1ccnc(NC(=O)C2CC2)c1 [Example 64, 2-(Cyclopropanecarboxamido)-N-(4-(pyrimidin-5-yl)pyridin-3-yl)isonicotinamide] |  |  |  | 97 nM | 76 nM | ≥ 10000 nM
CC(=O)Nc1ccc(NC(=O)c2ccnc(NC(=O)C3CC3)c2)cn1 [Example 4, N-(6-Acetamidopyridin-3-yl)-2-(cyclopropanecarboxamido)isonicotinamide] |  |  |  | 370 nM | 180 nM | 7200 nM
O=C(Nc1cncc(-c2cccc(F)n2)c1)c1ccnc(NC(=O)C2CC2)c1 [Example 165, 2-(cyclopropanecarboxamido)-N-(6-fluoro-[2,3′-bipyridin]-5′-yl)isonicotinamide] |  |  |  | 3.8 nM | 1.3 nM | 125 nM
O=C(Nc1cncc(-c2ccc(OC(F)(F)F)cc2)c1)c1ccnc(NC(=O)C2CC2)c1 [Example 120, 2-(cyclopropanecarboxamido)-N-(5-(4-(trifluoromethoxy)phenyl)pyridin-3-yl)isonicotinamide] |  |  |  | 11 nM | 8 nM | 5400 nM
O=C(Nc1cnccc1-c1ccccc1)c1ccnc(NC(=O)[C@@H]2CC[C@@H](O)C2)c1 (relative stereo) [Example 230, 2-((1,3-Trans)-3-hydroxycyclopentanecarboxamido)-N-(4-phenylpyridin-3-yl)isonicotinamide] | 2.5 nM | 0.68 nM | 73 nM |  |  | 
Cc1cccc2sc(NC(=O)c3ccnc(NC(=O)C4CC4)c3)nc12 [Example 184, 2-(cyclopropanecarboxamido)-N-(4-methylbenzo[d]thiazol-2-yl)isonicotinamide] |  |  |  | 800 nM | 170 nM | ≥ 10000 nM
CCCc1ccc(-c2ccncc2NC(=O)c2ccnc(NC(=O)C3CC3)c2)cc1 [Example 72, 2-(Cyclopropanecarboxamido)-N-(4-(4-propylphenyl)pyridin-3-yl)isonicotinamide] |  |  |  | 3.1 nM | 6.4 nM | 250 nM
O=C(Nc1cncc(-c2ccc(F)cc2F)c1)c1ccnc(NC(=O)C2CC2)c1 [Example 114, 2-(cyclopropanecarboxamido)-N-(5-(2,4-difluorophenyl)pyridin-3-yl)isonicotinamide] |  |  |  | 1.6 nM | 1.3 nM | 990 nM
CC(C)C(=O)Nc1cc(C(=O)Nc2cnccc2N2CCC(F)(F)CC2)c(F)cn1 [Example 206, N-(4-(4,4-difluoropiperidin-1-yl)pyridin-3-yl)-5-fluoro-2-isobutyramidoisonicotinamide] |  |  |  | 3 nM | 2.1 nM | 190 nM
O=C(O)c1cncc(NC(=O)c2ccnc(NC(=O)C3CC3)c2)c1 [Example 103, 5-(2-(cyclopropanecarboxamido)isonicotinamido)nicotinic Acid] |  |  |  | 197 nM | 121 nM | ≥ 10000 nM
CC(C)C(=O)Nc1cc(C(=O)Nc2cncc(-c3ccccc3Cl)c2)ccn1 [Example 195, N-(5-(2-chlorophenyl)pyridin-3-yl)-2-isobutyramidoisonicotinamide] |  |  |  | 10 nM | 1.5 nM | 107 nM
NC(=O)c1cnc(NC(=O)c2ccnc(NC(=O)C3CC3)c2)s1 [Example 183, 2-(2-(cyclopropanecarboxamido)isonicotinamido)thiazole-5-carboxamide] |  |  |  | 530 nM | 200 nM | ≥ 10000 nM
O=C(Nc1cnccc1N1CCOCC1)c1ccnc(NC(=O)C2CC2)c1 [Example 30, 2-(Cyclopropanecarboxamido)-N-(4-morpholinopyridin-3-yl)isonicotinamide] | 1 nM |  |  |  | 0.54 nM | 23 nM
O=C(Nc1ccc(-c2ccccc2)nc1)c1ccnc(NC(=O)C2CC2)c1 [Example 10, 2-(Cyclopropanecarboxamido)-N-(6-phenylpyridin-3-yl)isonicotinamide] |  |  |  | 16 nM | 64 nM | 1800 nM
O=C(Nc1cncc(-c2ccccc2)c1)c1ccnc(NC(=O)C2CCCC2)c1 [Example 232, 2-(cyclopentanecarboxamido)-N-(5-phenylpyridin-3-yl)isonicotinamide] | 1.2 nM |  |  |  | 0.51 nM | 330 nM
O=C(Nc1cnccc1N1CCCCCC1)c1ccnc(NC(=O)C2CC2)c1 [Example 53, N-(4-(azepan-1-yl)pyridin-3-yl)-2-(cyclopropanecarboxamido)isonicotinamide] |  |  |  | 37 nM | 14 nM | 1200 nM
O=C(Nc1cncnc1)c1ccnc(NC(=O)C2CC2)c1 [Example 178, 2-(Cyclopropanecarboxamido)-N-(pyrimidin-5-yl)isonicotinamide] |  |  |  | 14 nM | 12 nM | 1200 nM

SMILES | IC50 (GSK3β) | IC50 (GSK3α) | IC50 (pTau; read-out: pTau (nM)) | IC50 (GSK3β; [1]) | IC50 (GSK3α; [2]) | IC50 (pTau; read-out: pTau)
CCC1(c2cc(Cl)ncc2NC(=O)c2ccnc(NC(=O)C(C)C)c2)OCCO1 [Example 191, N-(6-chloro-4-(2-ethyl-1,3-dioxolan-2-yl)pyridin-3-yl)-2-isobutyramidoisonicotinamide] |  |  |  | 0.08 nM | 0.12 nM | 12 nM
CCOc1cccc(-c2cncc(NC(=O)c3ccnc(NC(=O)C4CC4)c3)c2)c1Cl [Example 158, N-(5-(2-chloro-3-ethoxyphenyl)pyridin-3-yl)-2-(cyclopropanecarboxamido)isonicotinamide] |  |  |  | 7.7 nM | 2.5 nM | 425 nM
CC(=O)c1ccncc1NC(=O)c1ccnc(NC(=O)C2CC2)c1 [Example 14, N-(4-acetylpyridin-3-yl)-2-(cyclopropanecarboxamido)isonicotinamide] | 0.85 nM |  |  |  | 0.54 nM | 76 nM
O=C(Nc1cnccc1C1CCC1)c1ccnc(NC(=O)C2CC2)c1 [Example 41, N-(4-cyclobutylpyridin-3-yl)-2-(cyclopropanecarboxamido)isonicotinamide] | 7.5 nM |  |  |  | 3 nM | 380 nM
O=C(Nc1cncc(-c2cncc(Cl)c2)c1)c1ccnc(NC(=O)C2CC2)c1 [Example 160] | 3.9 nM |  |  |  | 1.6 nM | 150 nM
CN(C)C(=O)c1ccc(-c2ccncc2NC(=O)c2ccnc(NC(=O)C3CC3)c2)c(F)c1 [Example 92, 2-(Cyclopropanecarboxamido)-N-(4-(4-(dimethylcarbamoyl)-2-fluorophenyl)pyridin-3-yl)isonicotinamide] |  |  |  | 24 nM | 11 nM | 460 nM
CC(C)C(=O)Nc1cc(C(=O)Nc2cncc(-c3ccccc3F)c2)ccn1 [Example 193, N-(5-(2-fluorophenyl)pyridin-3-yl)-2-isobutyramidoisonicotinamide] | 5.6 nM |  |  |  | 2.2 nM | 85 nM
CC(C)C(=O)Nc1cc(C(=O)Nc2cnccc2-c2ccccc2)ccn1 [Example 185, 2-Isobutyramido-N-(4-phenylpyridin-3-yl)isonicotinamide] | 1.4 nM |  |  |  | 4.2 nM | 180 nM
O=C(Nc1cncc(-c2cccc(N3CCOCC3)c2)c1)c1ccnc(NC(=O)C2CC2)c1 [Example 156, 2-(cyclopropanecarboxamido)-N-(5-(3-morpholinophenyl)pyridin-3-yl)isonicotinamide] |  |  |  | 11 nM | 3.6 nM | 420 nM
O=C(Nc1cncc(F)c1)c1ccnc(NC(=O)C2CC2)c1 [Example 12, 2-(Cyclopropanecarboxamido)-N-(5-fluoropyridin-3-yl)isonicotinamide] |  |  |  | 33 nM | 16 nM | 1400 nM
CCC1(c2cc(Cl)ncc2NC(=O)c2ccnc(NC(=O)C(C)(C)C)c2)OCCO1 [Example 210, N-(6-chloro-4-(2-ethyl-1,3-dioxolan-2-yl)pyridin-3-yl)-2-pivalamidoisonicotinamide] |  |  |  | 3.6 nM | 1.3 nM | 250 nM
O=C(Nc1cnccc1-c1ccc(I)cc1)c1ccnc(NC(=O)C2CC2)c1 [Example 169, 2-(cyclopropanecarboxamido)-N-(4-(4-iodophenyl)pyridin-3-yl)isonicotinamide] |  |  |  | 2.8 nM | 1.5 nM | 170 nM
O=C(Nc1cncc2ccccc12)c1ccnc(NC(=O)C2CC2)c1 [Example 6, 2-(Cyclopropanecarboxamido)-N-(isoquinolin-4-yl)isonicotinamide] |  |  |  | 7.2 nM | 2.7 nM | 190 nM
CC1(C)COCCN1c1ccncc1NC(=O)c1ccnc(NC(=O)C2CC2)c1 [Example 90, 2-(Cyclopropanecarboxamido)-N-(4-(3,3-dimethylmorpholino)pyridin-3-yl)isonicotinamide] | 0.15 nM |  |  |  | 0.1 nM | 0.4 nM
CC(C)(C)C(=O)Nc1cc(C(=O)Nc2cnccc2N2CCC(F)(F)CC2)ccn1 [Example 208, N-(4-(4,4-difluoropiperidin-1-yl)pyridin-3-yl)-2-pivalamidoisonicotinamide] | 4.2 nM |  |  |  | 3.1 nM | 120 nM
O=C(Nc1cnccc1C(=O)C(F)(F)F)c1ccnc(NC(=O)C2CC2)c1 [Example 24, 2-(Cyclopropanecarboxamido)-N-(4-(2,2,2-trifluoroacetyl)pyridin-3-yl)isonicotinamide] | 0.95 nM | 1.2 nM | 110 nM |  |  | 
O=C(Nc1cncc(-c2cc(F)ccc2F)c1)c1ccnc(NC(=O)C2CCC(F)(F)C2)c1 (stereo not drawn) [Example 236, 2-(3,3-difluorocyclopentanecarboxamido)-N-(5-(2,5-difluorophenyl)pyridin-3-yl)isonicotinamide] |  |  |  | 4.3 nM | 2.1 nM | 180 nM
